From the NIST ThermoML archive (doi:10.1016/j.fluid.2012.03.002)
± gives the expanded uncertainty stated by the source.

Tests used:
[1] = Crystal; DTA
[2] = Molar enthalpy of transition or fusion; conditions: Crystal; DSC

- Normal melting temperature [1]: 31.50 ± 0.7 °C
- Molar enthalpy of transition or fusion [2]: 13 ± 0.263 kcal/mol
SMILES: C=CC(=O)Oc1cccc(CCCCCCCCCCCCCCC)c1 [3-pentadecylphenyl acrylate]
